Assay results: ChEMBL document CHEMBL5241070, “Overview of all-trans-retinoic acid (ATRA) and its analogues: Structures, activities, and mechanisms in acute promyelocytic leukaemia” (Eur J Med Chem, 2021)
Values after ≈ are worked out from the molar mass of the structure shown.

What was measured:
Staphylococcus aureus = assay: Antibacterial activity against methicillin-resistant Staphylococcus aureus assessed as bacterial growth inhibition; assay type: functional
MDA-MB-231 = assay: Antiproliferative activity against human MDA-MB-231 cells assessed as inhibition of cell growth; assay type: functional, cell-based
A-375 = assay: Antiproliferative activity against human A-375 cells assessed as inhibition of cell growth measured after 24 hrs by WST-8 assay; assay type: functional
MOLM-13 = assay: Antiproliferative activity against human MOLM-13 cells assessed as inhibition of cell growth measured after 96 hrs by WST-8 assay; assay type: functional
[1] = Antiproliferative activity against human A2774 cells assessed as inhibition of cell growth measured after 72 hrs by XTT assay; assay type: functional
ME-180 [2] = assay: Antiproliferative activity against human ME-180 cells assessed as inhibition of cell growth; assay type: functional
MCF7 = assay: Antiproliferative activity in human MCF7 cells assessed as cell growth inhibition measured after 72 hrs by cell counting assay; assay type: functional
PC-3 = assay: Antiproliferative activity against human PC-3 cells assessed as inhibition of cell growth measured after 24 hrs by MTT assay; assay type: functional
NB-4 = assay: Antiproliferative activity against human NB-4 cells assessed as inhibition of cell growth measured after 96 hrs by MTT assay; assay type: functional
HT-29 = assay: Antiproliferative activity against human HT-29 cells assessed as inhibition of cell growth measured after 48 hrs by MTT assay; assay type: functional
SCL-1 = assay: Induction of apoptosis in human SCL-1 cells by flow cytometry assay; assay type: functional; details: read-out: MEC
HL-60 = assay: Antiproliferative activity against human HL-60 cells assessed as cell growth inhibition measured after 72 hrs by trypan blue staining based assay; assay type: functional
[3] = Antiproliferative activity against human UM-SCC-38 cells assessed as inhibition of cell growth; assay type: functional, cell-based
Y79 = assay: Antiproliferative activity against human Y79 cells assessed as inhibition of cell growth measured after 72 hrs by MTT assay; assay type: functional
[4] = Antiproliferative activity against human U87MG Human EGFR vIII cells assessed as inhibition of cell growth measured after 24 hrs by MTT assay; assay type: functional
ME-180 [5] = assay: Antiproliferative activity against human ME-180 cells assessed as inhibition of cell growth by [3H]-thymidine incorporation based liquid scintillation counter analysis; assay type: functional
ME-180 [6] = assay: Antiproliferative activity against human ME-180 ells assessed as inhibition of cell growth; assay type: functional, cell-based
A2780 = assay: Antiproliferative activity against human A2780 cells assessed as inhibition of cell growth measured after 72 hrs by SRB assay; assay type: functional, cell-based; details: A2780, 72 h

SMILES: O=C(O)/C=C/c1ccc(-c2ccc(O)c(C34CC5CC(CC(C5)C3)C4)c2)cc1 [ADAROTENE]
- MIC (Staphylococcus aureus): 1 µg/mL (≈ 2.67 µM)

SMILES: CC1=C(/C=C/C(C)=C/C=C/C(C)=C/C(=O)Nc2ccc(F)cc2)C(C)(C)CCC1n1ccnc1 (stereo unspecified)
- IC50 (MDA-MB-231): 890 nM

SMILES: CC1=C(/C=C/C(C)=C/C=C/C(C)=C/C(=O)O)C(C)(C)CCC1 [TRETINOIN]
- MCC (A-375): > 100 µM
- CC50 (MOLM-13): 1240 nM
- CC50 [1]: 82 nM
- CC50 (ME-180 [2]): 80 nM
- CC50 (MCF7): 20 nM
- CC50 (PC-3): 12700 nM
- CC50 (NB-4): 1500 nM
- CC50 (HT-29): 4300 nM
- minimal effective concentration (SCL-1): ≤ 10 µM
- CC50 (HL-60): 23 nM
- IC50 [3]: 5000 nM
- MCC (Y79): 2000 nM
- MCC [4]: 40 µM

SMILES: CCCC(=O)OCc1ccc(OC(=O)/C=C(C)/C=C/C=C(C)/C=C/C2=C(C)CCCC2(C)C)cc1
- GI50 (MDA-MB-231): 10 nM

SMILES: O=C(O)c1ccc2cc(-c3ccc(O)c(C45CC6CC(CC(C6)C4)C5)c3)ccc2c1 [O-DEMETHYLATED ADAPALENE]
- MIC (Staphylococcus aureus): 1 µg/mL (≈ 2.51 µM)

SMILES: CC(/C=C/C=C(\C)c1cc(C(C)(C)C)cc(C(C)(C)C)c1)=C\C(=O)O
- IC50 (ME-180 [5]): 1 nM

SMILES: O=C(O)c1ccc(-c2ccc3cc(O)c(C45CC6CC(CC(C6)C4)C5)cc3c2)cc1
- MIC (Staphylococcus aureus): 1 µg/mL (≈ 2.51 µM)

SMILES: C/C(=C/C=C/C(C)=C/C(=O)O)c1cc(C(C)(C)C)cc(C(C)(C)C)c1
- IC50 (ME-180 [6]): 20 nM

SMILES: CC1=C(/C=C/C(C)=C/C=C/C(C)=C/C(=O)Nc2ccc(O)cc2)C(C)(C)CC/C1=N\OCC(=O)O
- IC50 (A2780): 970 nM
